Results on 4 sequences are retold here after patent US20070128217A1 (priority 2003, published 2007).

Experiment [1] concerns antibodies in sera from SARS patients (sera 1a, 1b, 2, 6, 37, 62, London, SARS-yellow, SARS-green). The class given is binding, human. Set-up: Binding of serum 6 to linear peptides of protein X1 of SARS-CoV Urbani / Binding of serum 37 to linear peptides of protein X1 of SARS-CoV Urbani / Binding of serum 6 to looped/cyclic peptide (PEPSCAN-ELISA) / Binding of serum 37 to looped/cyclic peptide (PEPSCAN-ELISA) / Binding of serum 37 to looped/cyclic peptides of protein X1 of SARS-CoV Urbani / Binding of serum 6 to linear peptides of protein X2 / Binding of serum 37 to linear peptides of protein X2 / Binding of serum 37 to looped/cyclic peptides of protein X2 of SARS-CoV Urbani / Binding of serum 6 to linear peptides of protein M of SARS-CoV Urbani / Binding of serum 37 to linear peptides of protein M of SARS-CoV Urbani / Binding of serum 6 to looped/cyclic peptides of protein M of SARS-CoV Urbani / Binding of serum 37 to looped/cyclic peptides of protein M of SARS-CoV Urbani / Binding of serum 6 to linear peptides of protein X3 of SARS-CoV Urbani / Binding of serum 37 to linear peptides of protein X3 of SARS-CoV Urbani / Binding of serum 37 to looped/cyclic peptides of protein X3 of SARS-CoV Urbani / Binding of serum 6 to linear peptides of protein X4 of SARS-CoV Urbani / Binding of serum 37 to linear peptides of protein X4 of SARS-CoV Urbani / Binding of serum 37 to looped/cyclic peptides of protein X4 of SARS-CoV Urbani / Binding of serum 6 to linear peptides of protein X5 of SARS-CoV Urbani / Binding of serum 37 to linear peptides of protein X5 of SARS-CoV Urbani / Binding of serum 37 to looped/cyclic peptides of protein X5 of SARS-CoV Urbani / Binding of serum 6 to linear peptides of protein N of SARS-CoV Urbani / Binding of serum 37 to linear peptides of protein N of SARS-CoV Urbani / Binding of serum 6 to linear peptide (PEPSCAN-ELISA) / Binding of serum 1a to looped/cyclic peptides of protein N of SARS-CoV Urbani / Binding of serum 1b to looped/cyclic peptides of protein N of SARS-CoV Urbani / Binding of serum 2 to looped/cyclic peptides of protein N of SARS-CoV Urbani / Binding of serum 6 to looped/cyclic peptides of protein N of SARS-CoV Urbani / Binding of serum 37 to looped/cyclic peptides of protein N of SARS-CoV Urbani / Binding of serum 62 to looped/cyclic peptides of protein N of SARS-CoV Urbani / Binding of serum London to looped/cyclic peptides of protein N of SARS-CoV Urbani / Binding of serum SARS-green to looped/cyclic peptides of protein N of SARS-CoV Urbani: unit not given here.

Experiment [2] relates to rabbit serum obtained by immunizing a rabbit with the SARS-CoV strain Frankfurt 1. The class given is binding. Set-up: Binding of a rabbit serum to linear peptides / Binding of a rabbit serum to looped peptides / Rabbit serum linear peptides / Rabbit serum looped peptides / Binding of a rabbit serum to linear peptides of protein N of SARS-CoV Urbani (Rabbit serum linear peptides) / Binding of a rabbit serum to looped/cyclic peptides of protein N of SARS-CoV Urbani (Rabbit serum looped peptides): unit not given here.

Experiment [3] concerns control sera (pooled serum of ten healthy LUMC hospital workers; commercial negative donor pooled serum from the Dutch bloodbank). The class given is binding, human. Set-up: Binding of Control serum LUMC to linear peptides / Binding of Control serum Blood-bank to linear peptides / Binding of Control serum LUMC to looped peptides / Binding of Control Serum Blood-Bank to Looped peptides / Binding of Control serum LUMC to linear peptides of the protein M of SARS-CoV Urbani / Binding of Control serum Blood-bank to linear peptides of the protein M of SARS-CoV Urbani / Binding of Control serum LUMC to looped peptides of the protein M of SARS-CoV Urbani / Binding of Control Serum Blood-Bank to Looped peptides of the protein M of SARS-CoV Urbani: unit not given here.

In the case of FRLFARTRSMWSFNP, in experiment [1], the “Binding of serum 1a to linear peptides of protein M of SARS-CoV Urbani” value came out at 0.8, the “Binding of serum 1a to looped/cyclic peptides of protein M of SARS-CoV Urbani” value came to 0.7, the “Binding of serum 1b to linear peptides of protein M of SARS-CoV Urbani” value amounted to 0.5 and the “Binding of serum 1b to looped/cyclic peptides of protein M of SARS-CoV Urbani” value was 0.5. In addition, in experiment [1], the “Binding of serum 2 to linear peptides of protein M of SARS-CoV Urbani” value is reported as 0.6, the “Binding of serum 2 to looped/cyclic peptides of protein M of SARS-CoV Urbani” value came out at 0.6, the “Binding of serum 6 to linear peptides of protein M of SARS-CoV Urbani” value came to 0.5 and the “Binding of serum 6 to looped/cyclic peptides of protein M of SARS-CoV Urbani” value is 0.8. Also, in experiment [1], the “Binding of serum 37 to linear peptides of protein M of SARS-CoV Urbani” value was found to be 0.5, the “Binding of serum 37 to looped/cyclic peptides of protein M of SARS-CoV Urbani” value was 0.6, the “Binding of serum 62 to linear peptides of protein M of SARS-CoV Urbani” value is recorded as 0.5 and the “Binding of serum 62 to looped/cyclic peptides of protein M of SARS-CoV Urbani” value is on record as 0.6. Besides, in experiment [1], the “Binding of serum London to linear peptides of protein M of SARS-CoV Urbani” value is 0.4, the “Binding of serum London to looped/cyclic peptides of protein M of SARS-CoV Urbani” value stood at 0.3, the “Binding of serum SARS-green to linear peptides of protein M of SARS-CoV Urbani” value is on record as 0.6 and the “Binding of serum SARS-green to looped/cyclic peptides of protein M of SARS-CoV Urbani” value worked out at 0.3. Besides, in experiment [1], the “Binding of serum SARS-yellow to linear peptides of protein M of SARS-CoV Urbani” value was 0.2 and the “Binding of serum SARS-yellow to looped/cyclic peptides of protein M of SARS-CoV Urbani” value worked out at 0.5. Moreover, in experiment [2], the “Rabbit serum linear peptides” value is reported as 0.2 and the “Rabbit serum looped peptides” value is recorded as 0.2. In experiment [3], the “Binding of Control Serum Blood-Bank to Looped peptides of the protein M of SARS-CoV Urbani” value came out at 0.8, the “Binding of Control serum Blood-bank to linear peptides of the protein M of SARS-CoV Urbani” value was 0.8, the “Binding of Control serum LUMC to linear peptides of the protein M of SARS-CoV Urbani” value is given as 0.8 and the “Binding of Control serum LUMC to looped peptides of the protein M of SARS-CoV Urbani” value amounted to 0.6.
Consider FTEVYYQLESTQITT, for which, in experiment [1], the “Binding of serum 1a to linear peptides of protein X1 of SARS-CoV Urbani” value came out at 0.8, the “Binding of serum 1a to looped/cyclic peptides of protein X1 of SARS-CoV Urbani” value amounted to 0.5, the “Binding of serum 1b to linear peptides of protein X1 of SARS-CoV Urbani” value worked out at 0.7 and the “Binding of serum 1b to looped/cyclic peptides of protein X1 of SARS-CoV Urbani” value was found to be 0.5. In experiment [1], the “Binding of serum 2 to linear peptides of protein X1 of SARS-CoV Urbani” value is recorded as 0.5, the “Binding of serum 2 to looped/cyclic peptides of protein X1 of SARS-CoV Urbani” value is listed as 0.4, the “Binding of serum 6 to linear peptides of protein X1 of SARS-CoV Urbani” value amounted to 0.5 and the “Binding of serum 6 to looped/cyclic peptides of protein X1 of SARS-CoV Urbani” value came to 0.4. Moreover, in experiment [1], the “Binding of serum 37 to linear peptides of protein X1 of SARS-CoV Urbani” value came out at 0.7, the “Binding of serum 37 to looped/cyclic peptides of protein X1 of SARS-CoV Urbani” value came out at 0.7, the “Binding of serum 62 to linear peptides of protein X1 of SARS-CoV Urbani” value stood at 0.7 and the “Binding of serum 62 to looped/cyclic peptides of protein X1 of SARS-CoV Urbani” value is listed as 0.5. Moreover, in experiment [1], the “Binding of serum London to linear peptides of protein X1 of SARS-CoV Urbani” value was 0.3, the “Binding of serum London to looped/cyclic peptides of protein X1 of SARS-CoV Urbani” value is given as 0.2, the “Binding of serum SARS-green to linear peptides of protein X1 of SARS-CoV Urbani” value turned out to be 0.5 and the “Binding of serum SARS-green to looped/cyclic peptides of protein X1 of SARS-CoV Urbani” value amounted to 0.3. Moreover, in experiment [1], the “Binding of serum SARS-yellow to linear peptides of protein X1 of SARS-CoV Urbani” value is on record as 0.5 and the “Binding of serum SARS-yellow to looped/cyclic peptides of protein X1 of SARS-CoV Urbani” value was 0.4. In experiment [2], the “Binding of a rabbit serum to linear peptides” value turned out to be 0.1 and the “Binding of a rabbit serum to looped peptides” value is listed as 0.5. In experiment [3], the “Binding of Control Serum Blood-Bank to Looped peptides” value was 0.6, the “Binding of Control serum Blood-bank to linear peptides” value is 0.6, the “Binding of Control serum LUMC to linear peptides” value is recorded as 0.5 and the “Binding of Control serum LUMC to looped peptides” value was 0.6.
For the sequence FTSCELYHYQECVRG, in experiment [1], the “Binding of serum 1a to linear peptides of protein X4 of SARS-CoV Urbani” value came to 0.8, the “Binding of serum 1a to looped/cyclic peptides of protein X4 of SARS-CoV Urbani” value is 0.8, the “Binding of serum 1b to linear peptides of protein X4 of SARS-CoV Urbani” value is 0.7 and the “Binding of serum 1b to looped/cyclic peptides of protein X4 of SARS-CoV Urbani” value is 0.7. Further, in experiment [1], the “Binding of serum 2 to linear peptides of protein X4 of SARS-CoV Urbani” value came to 0.5, the “Binding of serum 2 to looped/cyclic peptides of protein X4 of SARS-CoV Urbani” value is reported as 0.6, the “Binding of serum 6 to linear peptides of protein X4 of SARS-CoV Urbani” value turned out to be 0.9 and the “Binding of serum 6 to looped/cyclic peptides of protein X4 of SARS-CoV Urbani” value is on record as 0.6. Further, in experiment [1], the “Binding of serum 37 to linear peptides of protein X4 of SARS-CoV Urbani” value came out at 0.8, the “Binding of serum 37 to looped/cyclic peptides of protein X4 of SARS-CoV Urbani” value was 0.8, the “Binding of serum 62 to linear peptides of protein X4 of SARS-CoV Urbani” value is listed as 0.8 and the “Binding of serum 62 to looped/cyclic peptides of protein X4 of SARS-CoV Urbani” value was determined as 0.7. In experiment [1], the “Binding of serum London to linear peptides of protein X4 of SARS-CoV Urbani” value was 0.9, the “Binding of serum London to looped/cyclic peptides of protein X4 of SARS-CoV Urbani” value was determined as 0.3, the “Binding of serum SARS-green to linear peptides of protein X4 of SARS-CoV Urbani” value is reported as 0.5 and the “Binding of serum SARS-green to looped/cyclic peptides of protein X4 of SARS-CoV Urbani” value turned out to be 0.6. In addition, in experiment [1], the “Binding of serum SARS-yellow to linear peptides of protein X4 of SARS-CoV Urbani” value is reported as 0.3 and the “Binding of serum SARS-yellow to looped/cyclic peptides of protein X4 of SARS-CoV Urbani” value was 0.5. Besides, in experiment [2], the “Rabbit serum linear peptides” value is 0.4 and the “Rabbit serum looped peptides” value stood at 0.3. Also, in experiment [3], the “Binding of Control Serum Blood-Bank to Looped peptides” value was found to be 0.8, the “Binding of Control serum Blood-bank to linear peptides” value turned out to be 0.7, the “Binding of Control serum LUMC to linear peptides” value worked out at 0.7 and the “Binding of Control serum LUMC to looped peptides” value is reported as 0.8.
Consider FTTSLSLHKLLQTLV, for which, in experiment [1], the “Binding of serum 1a to linear peptides of protein X2” value turned out to be 0.5, the “Binding of serum 1a to looped/cyclic peptides of protein X2 of SARS-CoV Urbani” value was determined as 2.1, the “Binding of serum 1b to linear peptides of protein X2” value came to 0.5 and the “Binding of serum 1b to looped/cyclic peptides of protein X2 of SARS-CoV Urbani” value is recorded as 2.5. For the same sequence, in experiment [1], the “Binding of serum 2 to linear peptides of protein X2” value amounted to 0.4, the “Binding of serum 2 to looped/cyclic peptides of protein X2 of SARS-CoV Urbani” value stood at 1.2, the “Binding of serum 6 to linear peptides of protein X2” value worked out at 0.6 and the “Binding of serum 6 to looped/cyclic peptides of protein X2 of SARS-CoV Urbani” value is given as 0.8. In experiment [1], the “Binding of serum 37 to linear peptides of protein X2” value turned out to be 0.5, the “Binding of serum 37 to looped/cyclic peptides of protein X2 of SARS-CoV Urbani” value is on record as 1.3, the “Binding of serum 62 to linear peptides of protein X2” value is reported as 0.5 and the “Binding of serum 62 to looped/cyclic peptides of protein X2 of SARS-CoV Urbani” value is given as 1.7. For the same sequence, in experiment [1], the “Binding of serum London to linear peptides of protein X2” value worked out at 0.4, the “Binding of serum London to looped/cyclic peptides of protein X2 of SARS-CoV Urbani” value is 1.0, the “Binding of serum SARS-green to linear peptides of protein X2” value worked out at 0.5 and the “Binding of serum SARS-green to looped/cyclic peptides of protein X2 of SARS-CoV Urbani” value amounted to 1.7. In experiment [1], the “Binding of serum SARS-yellow to linear peptides of protein X2” value is on record as 0.4 and the “Binding of serum SARS-yellow to looped/cyclic peptides of protein X2 of SARS-CoV Urbani” value stood at 1.3. In addition, in experiment [2], the “Binding of a rabbit serum to linear peptides” value is given as 0.1 and the “Binding of a rabbit serum to looped peptides” value was determined as 0.9. In addition, in experiment [3], the “Binding of Control Serum Blood-Bank to Looped peptides” value is reported as 2.0, the “Binding of Control serum Blood-bank to linear peptides” value is 0.6, the “Binding of Control serum LUMC to linear peptides” value is on record as 0.5 and the “Binding of Control serum LUMC to looped peptides” value was found to be 1.6.
